# In BindingDB's records for doi:10.1016/j.ejmech.2015.12.016 (Shenyang Pharmaceutical University, 2016):
# What was measured:
# [1] = Inhibition of VEGFR-1 (unknown origin) by tumor cell growth inhibition assay
# [2] = Inhibition of VEGFR-3 (unknown origin) by tumor cell growth inhibition assay
# [3] = Inhibition of c-Met (unknown origin) by tumor cell growth inhibition assay
# [4] = Inhibition of VEGFR-2 (unknown origin) by tumor cell growth inhibition assay
compound,measurement,setting,value
Cn1ccnc1-c1cc2c(Oc3ccc(NC(=S)NC(=O)Cc4ccccc4)cc3F)ccnc2s1,IC50,[1],3 nM
same,IC50,[2],4 nM
same,IC50,[3],1 nM
same,IC50,[4],3 nM
